This data set in a line: Multiple-dose pharmacokinetics in healthy humans. Format: in vivo, human. The method, then:
Naringin and placebo tablets were identical in appearance and participants, care providers, and those assessing outcomes were blinded to the study drug assignment. Using the Statistical Analysis System (SAS) software (Version 9.4, SAS Institute Inc., Cary, NC, USA), subject randomization and blinding/masking were performed by statisticians from the Department of Health Statistics at the Second Military Medical University. […] Human urine samples were collected at −12~0, 0~4, 4~8, 8~12, 12~24, 24~36, 36~48, 48~60, and 60~72 h for the single-dose groups and −12~0 (Day1), −12~0 (Day7), 0~4, 4~8, 8~12, 12~24, 24~36, 36~48, 48~60, and 60~72 h (Day7) for the multiple-dose group with records of volume. Human feces were collected in storage boxes, weighed, and recorded from 12 h before administration to 72 h postadministration. […] The optimal volume and activity in unit volume of enzyme solution [0.2 M acetic acid/water solution: 0.2 M ammonium acetate/water solution, 15:35 (v/v)] were determined through a pretest of the enzyme (rat plasma, 10 μl, 10 U μl^-1; dog plasma, 10 μl, 10 U μl^-1; human plasma, 20 μl, 20 U μl^-1; human urine, 10 μl, 10 U μl^-1). After enzyme incubation, 10 μl of IS solution was added to the plasma and urine samples (2 μg ml^-1 quercetin 3-β-D-glucoside for rat and dog plasma; 583 ng ml^-1 naringin-D4 and 160 ng ml^-1 naringenin-D4 for human plasma; and 9,710 ng ml^-1 naringin-D4 and 6,000 ng ml^-1 naringenin-D4 for human urine). To each fecal sample, 9-fold methanol-normal saline (2:1, v/v) was added, mixed (18,000 rpm, 15 min) by vortexing and centrifuged (10 min, 9,000 rpm, 4°C). Next, 10 μl IS solution (971 ng ml^-1 naringin-D4 and 600 ng ml^-1 naringenin-D4) was added to the supernatants of feces (200 μl) without enzyme incubation. […] The solid material was dissolved with acetonitrile-water (1:1, v/v) and injected into the ultra high-performance liquid chromatography coupled with triple quadrupole mass spectrometry (UHPLC/MS/MS) system as described below. The analysis of nonclinical and clinical samples was performed with a UHPLC/MS/MS system that consisted of a Shimadzu Nexera X2 ultra high-performance liquid chromatography (UHPLC) (Shimadzu Corp., Kyoto, Japan) coupled with an AB Sciex API4000 triple-quadrupole mass spectrometry (MS/MS) system (AB Sciex, Foster City, CA, USA) equipped with an electrospray ionization source and controlled by Analyst (v. 1.6.2) software. […] The injection volume was 10 μl with the flow rate of 0.3 ml min^-1 for plasma, and 0.4 ml min^-1 for urine and feces. The compounds were detected by multiple reaction monitoring in the negative ion electrospray mode. The electrospray source conditions were as follows: ion source gas1 30 psi, ion source gas2 60 psi, curtain gas 20 psi, collisionally activated dissociation (CAD) gas 8 psi, temperature 500°C, and ion spray voltage −4,500 V. Zero air was used for ion source gas1 and ion source gas2 and nitrogen for curtain gas and CAD gas. […] All pharmacokinetic and excretion parameters were expressed as mean ± standard deviation (SD). All mean and SD values were reported to three significant figures. The pharmacokinetic parameters were calculated using the Phoenix WinNonlin software (Version 6.4, Pharsight Corp., Cary, NC, USA) and compared using the Student's t-test (p < 0.05) in SPSS 18.0 (SPSS Inc., Chicago, IL, USA). […] For the multiple-dose studies, pharmacokinetic parameters included the mean plasma level at steady state, Tmax, t1/2, the percent fluctuation, and the accumulation index (Table 3). […] In addition, we compared the pharmacokinetic parameters obtained from males and females (Tables 4–6).

Setting [1] is: naringin 160 mg multiple dose, human, female.
[2] abbreviates: naringin 160 mg multiple dose, human, male.
Where [3] appears, read: naringin 160 mg p.o. three times a day, multiple dose, human.

Regarding `C[C@@H]1O[C@@H](O[C@H]2[C@H](Oc3cc(O)c4c(c3)O[C@H](c3ccc(O)cc3)CC4=O)O[C@H](CO)[C@@H](O)[C@@H]2O)[C@H](O)[C@H](O)[C@H]1O` [naringin, Naringin], the “accumulation in multiple-dose study” value (humans) is on record as “no significant accumulation”. Moreover, the CavSS is 1.74 ± 0.377 ng/mL under setting [1], 1.75 ± 0.403 ng/mL under setting [2] and 1.75 ± 0.365 ng/mL under setting [3]. This molecule also gave a Fluctuation under setting [1] of 149 ± 37.5%; a Fluctuation under setting [2] of 210 ± 79.6%; a Fluctuation (naringin 160 mg p.o. three times a day, multiple dose, human, (CmaxSS−CminSS)/CavSS×100%) of 187 ± 70.7%.
As to `O=C1C[C@@H](c2ccc(O)cc2)Oc2cc(O)cc(O)c21` [naringenin, Naringenin], the “accumulation in multiple-dose study” value (in vivo) was “no significant accumulation”. Moreover, the CavSS under setting [1] worked out at 22.6 ± 8.42 ng/mL, the CavSS under setting [2] worked out at 47.2 ± 47 ng/mL and the CavSS under setting [3] stood at 39 ± 38.7 ng/mL. Besides, the Tmax – broadly, the time at which the peak concentration occurs – under setting [3] was 5.83 ± 1.17 h.

For the origin of these results see article PMC7118210 (Frontiers in Pharmacology, 2020).
